Several values for one entry are separate records, joined by “and”; a condition that tells them apart may be missing. Equal entries are not always repeated.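 Following 48 hours of exposure in 96-well plates, responses at five concentrations were used to interpolate endpoints linearly. The concentration for 50% growth inhibition is given as GI50. TGI marks complete inhibition of growth.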
Experiments:
Test in all cases: growth of human tumour cells (NCI), 48 h
CCRF-CEM leukemia = tested on: CCRF-CEM leukemia
COLO 205 colon = tested on: COLO 205 colon
NCI-H23 lung = tested on: NCI-H23 lung
HCC-2998 colon = tested on: HCC-2998 colon
SR leukemia = tested on: SR leukemia
SK-MEL-5 melanoma = tested on: SK-MEL-5 melanoma
SW-620 colon = tested on: SW-620 colon
M14 melanoma = tested on: M14 melanoma

| Structure (SMILES) | GI50 (CCRF-CEM leukemia) [µM] | TGI (CCRF-CEM leukemia) [µM] | GI50 (COLO 205 colon) [µM] | TGI (COLO 205 colon) | GI50 (NCI-H23 lung) [µM] | TGI (NCI-H23 lung) [µM] | GI50 (HCC-2998 colon) [µM] | TGI (HCC-2998 colon) | GI50 (SR leukemia) [µM] | TGI (SR leukemia) [µM] | GI50 (SK-MEL-5 melanoma) [µM] | TGI (SK-MEL-5 melanoma) [µM] | GI50 (SW-620 colon) [µM] | TGI (SW-620 colon) [µM] | GI50 (M14 melanoma) | TGI (M14 melanoma) [µM] |
| --- | --- | --- | --- | --- | --- | --- | --- | --- | --- | --- | --- | --- | --- | --- | --- | --- |
| O=c1c2ccccc2c(/C=N\NC2=NCCN2)c2oc3ccccc3n12 | 32.2 | > 100 | 18.8 | 38.7 µM | 15.7 | 37.6 | 12.9 | 34.1 µM | 6.12 | > 100 | 21.3 | 41.7 | 22.1 | 74 | 34.4 µM | > 100 |
| COc1ccc(NC2=C(I)C(=O)c3ncccc3C2=O)cc1 | 2.04 | 6.55 | 1.68 | 3.47 µM | 0.327 | 1.68 | 1.45 | 3.01 µM | 0.546 | 9.61 | 0.347 | 1.42 | 1.13 | 3.06 | 1.29 µM | 2.9 |
| O=c1cnnc(N/N=C/c2ccccc2O)[nH]1 | 0.396 | > 39.9 | 0.33 | > 100 µM | 1.21 | > 100 | 3.02 | > 100 µM | 1.51 | > 100 | 1.25 | > 39.6 | 0.442 | > 100 | 0.449 µM | 19.2 |
| C#Cc1cccc(Nc2ncnc3ccc(OCCCCNCCS(C)(=O)=O)cc23)c1 | 7.65 | > 25 | 5.58 | 12.3 µM | 16.7 | > 25 | 7.83 | > 25 µM | 6.55 | 15.3 | 4.26 | 8.63 | 9.43 | > 25 | 5.11 µM | 9.66 |
| CC1=C(C)C(=O)O[C@@H]([C@](C)(O)[C@]2(O)CC[C@@]3(O)[C@@H]4C[C@H](O)[C@]5(O)[C@@H](O)C=CC(=O)[C@]5(C)[C@H]4CC[C@]23C)C1 |  | 89.5 |  | > 100 µM |  | > 100 |  | > 100 µM |  | 84.3 |  | > 100 |  | > 100 |  | > 100 |
| O=C(C=P(c1ccccc1)(c1ccccc1)c1ccccc1)CCl | 0.826 | 7.41 | 1.53 | 3.66 µM | 0.811 | 4.83 | 1.84 | 3.7 µM | 0.38 | 10.5 | 1.45 | 2.83 | 0.579 | 2.12 | 1.36 µM | 3.89 |
| COc1cccc(-c2cc(=O)c3cc(N4CCOCC4)ccc3[nH]2)c1 | 0.0218 | 0.111 | 0.0353 | 0.0463 µM and 0.234 µM | 0.55 |  | 0.0236 | 0.433 µM and 0.0581 µM |  | 0.741 | 0.0319 |  | 0.0125 | > 100 | 0.0365 µM and 0.0749 µM | > 100 |
| N#CC1=C(N)NC(=S)NC12Nc1ccccc1S2 (configuration not stated) | 15.1 | 53.3 | 24.8 | 82.6 µM | 31.4 | > 100 | 33 | > 100 µM | 15.8 | 46.8 | 19.6 | 54.9 | 36.7 | > 100 | 40.1 µM | > 100 |
